One molecule from paper PMC6985109, “Cellular apoptosis and necrosis as therapeutic targets for novel Eugenol Tosylate Congeners against Candida albicans” (Scientific Reports, 2020) can be followed below.

Test [1] deals with C. albicans SC5314, C. albicans 4175 and C. albicans 5112. The test is described as follows: JC-10 mitochondrial membrane potential assay. The class given is cell-based, Candida albicans. The note with it: 3 h, range over three strains, vs untreated control. How it is done: (§1) To study the effect of test compounds on apoptotic markers protoplasts were prepared as described previously, with modifications. Briefly, mid-exponential phase cells were harvested and exposed to various concentrations of test compounds (0.5 × MIC, 1 × MIC and 2×MIC) for 3 h. The cells were then washed twice with protoplast buffer- I (1 M sorbitol, 50 mM tris base, 10 mM MgCl2 and 30 mM DTT) and incubated in the same buffer for 15 minutes at 25 °C, followed by centrifugation at 1500 rpm for 5 minutes. Supernatant was removed and cells were incubated with buffer- II (1 M sorbitol, 50 mM tris base, 10 mM MgCl2 and 1 mM DTT) supplemented with lyticase enzyme (≥1 µg/mL) used to digest the cell wall for 1 h at 25 °C. Buffer- II were removed by centrifugation and then cells were incubated with buffer- III (1 M sorbitol, 50 mM tris base and 10 mM MgCl2) for 20 minutes at room temperature. After the incubation cells were again centrifuged at 1500 rpm for 5 minutes and supernatant was discarded. Protoplasts then finally washed once with PBS and re-suspended in the same for further use. In each washing steps the volume of these protoplast buffers were 5 times to cell volume with pH 7.4.
For the detection of mitochondrial membrane potential changes in cells exposed with different concentrations of active tosylate congeners, the JC-10 mitochondrial membrane potential assay kit–microplate (abcam, Cambridge, UK) was used according to the manufacturer’s instructions. Protoplasts were prepared as described above at a concentration of 1 × 10^6 cells/ml. 90 µl of this suspension was added to each well in 96-well microplate (with black wall and clear bottom) followed by addition of 50 µl/well JC-10 dye-loading solution. […] Fluorescence intensity were monitored at Ex/Em = 490/525 nm and 540/590 nm with a BioTek Synergy HT microplate reader (BioTek Instruments, WA, USA) for ratio analysis. The ratio between aggregate (Em = 525 nm) and monomeric forms (Em = 590 nm) of JC-10, were measured to find the change in mitochondrial membrane potential. […]

Test [2] concerns fluconazole susceptible and resistant C. albicans strains. The test is described as follows: Broth microdilution antifungal susceptibility, ranges over strains. The class given is cell-based. To be noted: Candida albicans; over the tested C. albicans strains. How it is done:
In this study, 10 clinical Candida albicans isolates, comprising of 5 fluconazole susceptible and 5 fluconazole resistant, were used. C. albicans SC5314 was also used as a control laboratory strain. Clinical strains used in this study were stored at −80 °C supplemented with 20% glycerol in the Department of Clinical Microbiology and Infectious Diseases, University of the Witwatersrand, Johannesburg and were previously collected under the ethical clearance number M000402, obtained from the Human Research Ethics Committee, University of the Witwatersrand. For experimental purpose each strain from glycerol stock was recovered on Sabouraud Dextrose (SDA) agar plates at 37 °C for 24 h.
Minimum Inhibitory Concentration (MIC) and Minimum Fungicidal Concentrations (MFC) of all newly synthesized eugenol-tosylate congeners (ETC-1–ETC-7) against C. albicans strains were determined by broth microdilution assay in accordance with the approved guidelines described by Clinical and Laboratory Standards Institute (CLSI) guidelines M27-A[38]. The test compounds were prepared in 1% DMSO to a stock concentration of 8192 µg/ml. Two-fold dilutions of test compounds (100 µL) were prepared in 96-well flat-bottom microtiter plates, inoculated with 100 µl of inoculum (1 × 10^6 cells/mL) and incubated at 37 °C for 24 hours. In every set of experiment, positive control (fluconazole), negative vehicle control (1% DMSO) and culture control (media and cells only) were included. MIC’s were determined visibly as the lowest concentration of the test compounds that inhibited growth of test organism. To determine MFC, each well without visible growth was sub-cultured onto agar plates. Concentration in the first well with no growth on plate was taken as MFC. […] The experiment was performed in triplicate to validate the results.

Test [3] deals with C. albicans 4175, C. albicans 5112 and C. albicans SC5314. The test is described as follows: FITC annexin V/PI staining flow cytometry, ranges over three strains. The class given is cell-based, Candida albicans. The note with it: range over 0.5 × MIC, 1 × MIC, 2 × MIC and three strains. The method, then:
as §1
This assay was used to identify early apoptosis by detecting movement of phosphatidylserine (PS) from the inner to the outer leaflet of plasma membrane. FITC annexin V Apoptosis Detection Kit I (BD Biosciences, CA, USA) was used according to the manufacturer’s instructions. Protoplasts of C. albicans cells treated with different concentrations of the test compounds, as mentioned in above section, were resuspended in 1X annexin V binding buffer ([…]) at a concentration of 1 × 10^6 cells per ml. To the 100 µl of this solution, 5 µl each of FITC annexin V and propidium iodide (PI) was added. Tubes were gently vortexed and incubated for 15 minutes at 25 °C in the dark. After incubation, 400 µl of 1X annexin V binding buffer was added to each tube and analyzed using the BD LSRFortessa Flow cytometer (Becton Dickinson, NJ, USA). The cell populations in four different quadrants of a quadrant dot plot were analyzed and interpreted as; Q1: necrosis (annexin V^−/PI^+), Q2: late apoptosis (annexin V^+/PI^+), Q3: early apoptosis (annexin V^+/PI^−) and Q4: viable cells (annexin V^−/PI^−), by using software FlowJo_V10.

≈ marks a conversion by molar mass, not a printed value.

For the molecule `C=CCc1ccc(OS(=O)(=O)c2ccc(C(=O)O)cc2)c(OC)c1` [ETC-7, 4-{[2-methoxy-4-(prop-2-en-1-yl)phenoxy]sulfonyl}benzoic acid], in test [1] (0.5 × MIC), the “decrease in mitochondrial membrane potential” value (shortened to “decrease”) is 1.04–1.58 folds. Also, the “decrease” value in test [1] (1 × MIC) is recorded as 1.56–2.62 folds. The “decrease” value in test [1] (2 × MIC) was 3.55–4.46 folds. In test [2], the MFC was 2 to 8 mg/L (≈ 5.74 to 23 µM) and the MIC lay in the range of 1 to 4 mg/L (≈ 2.87 to 11.5 µM). In test [3], the early apoptosis is 8–32%, the late apoptosis is given as 2–26% and the necrosis is 1–31%.
